Assay results reported in patent US4605614A, “Method for measuring plasmin” (Nitto Boseki Co., Ltd., priority 1981, dated 1986).
Where a SMILES comes first, the peptide text is derived from it.

How the values were obtained:
[1] = test system: coagulation and linear dissolution related enzymes such as thrombin, Factor Xa, UK; details: prior substrate, cited from earlier work
plasmin (pig) [2] = molecular target: T1, plasmin (pig) (Sus scrofa, UniProt P06867); details: prior substrate; enzyme not stated in the sentence (plasmin substrates); cited from earlier work
Plasmin (PL) = Plasmin (PL) (Sus scrofa, UniProt P06867); format: biochemical, Pig; details: TABLE 3, PNA substrates; So = 0.54 mmole/l; pH 7.4; 37° C., 10 minutes; 0.32 CU/ml
Method: (§1) (1) Substrate solution concentration: 35 mmole/liter H2 O
(§2) (2) Buffer: Tris-hydrochloric acid buffer 50 mmole/l, NaCl 150 mmole/l (0.875%) was employed, and the pH for reaction was as follows depending on the enzyme.
Plasmin Pig Sigma (U.S.A.)
(§3) 0.5 ml of the buffer solution and 0.05 ml of the enzyme reagent were taken into a silicon-treated hard glass test tube or a plastic test tube, and preheated in a constant temperature bath at 37° C. for 5 minutes. Thereafter, 0.1 ml of the substrate solution was added to effect the enzymatic reaction at 37° C. for 10 minutes. Exactly after 10 minutes, 2.5 ml of the reaction terminating solution or the terminating and color developing reagent solution was added to terminate the enzymatic reaction, and after allowing to stand at 25° C. for 10 minutes, the absorbance at 405 nm or 645 nm was measured, in which [drawing 49]

Kallikrein (KL) = Kallikrein (KL) (Sus scrofa, UniProt P00752); format: biochemical, Pig; details: TABLE 3, PNA substrates; So = 0.54 mmole/l; pH 7.9; 37° C., 10 minutes; 1.0 BAEE-U/ml
Method: (§4) The specificities of the novelly synthesized substrates were tested by reacting them with various enzymes respectively.
as §1, §2
(§5) 2,6-Xylenol 7.0 mmole+NaIO4 1.5 mmole/0.2N KOH
as §3

Factor-Xa (FXa) = Factor-Xa (FXa) (Bos taurus, UniProt P00743); format: biochemical, Cow; details: TABLE 3, PNA substrates; So = 0.54 mmole/l; pH 8.4; 37° C., 10 minutes; 0.4 U/ml
Method: as §4, §1, §2, §5, §3

Thrombin (TH) = Thrombin (TH) (Bos taurus, UniProt P00735); format: biochemical, Cow; details: TABLE 3, PNA substrates; So = 0.54 mmole/l; pH 8.4; 37° C., 10 minutes; 1.0 NIH/ml
Method: as §4, §1, §2, §5, §3

plasmin (pig) [3] = molecular target: T1, plasmin (pig); assay: Km, Vmax and Vmax/Km of substrates for plasmin (pig); format: biochemical, Porcine (pig); details: for Vmax (× 10^-6) [mole/min/Cu]: Porcine Plasmin, comparison table in description; for V/Km (× 10^-3) / Vmax (× 10^7): TABLE 1, PNA substrates, plasmin (pig); for Vmax (× 10^7): 405 nm; for Relative ratio: TABLE 1, V/Km of each sample divided by that of S2251
Urokinase (UK) = Urokinase (UK) (Homo sapiens, UniProt P00749); format: biochemical; details: TABLE 3, PNA substrates; So = 0.54 mmole/l; pH 8.2; 37° C., 10 minutes; 1000 IU/ml
Method: as §4, §1, §2, §5, §3

Human Thrombin = details: read-out: Michaelis's constant (Km); cited from earlier work
Human Plasmin = details: read-out: Michaelis's constant (Km); cited from earlier work

Kallikrein (KL), sequence (P00752 8-246): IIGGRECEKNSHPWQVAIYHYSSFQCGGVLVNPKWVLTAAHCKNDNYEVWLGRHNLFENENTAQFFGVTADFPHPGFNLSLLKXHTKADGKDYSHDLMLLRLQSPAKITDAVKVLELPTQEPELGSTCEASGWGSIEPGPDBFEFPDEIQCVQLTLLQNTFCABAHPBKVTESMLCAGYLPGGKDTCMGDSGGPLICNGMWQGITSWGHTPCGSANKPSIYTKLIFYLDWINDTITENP
Thrombin (TH), sequence (P00735 44-625): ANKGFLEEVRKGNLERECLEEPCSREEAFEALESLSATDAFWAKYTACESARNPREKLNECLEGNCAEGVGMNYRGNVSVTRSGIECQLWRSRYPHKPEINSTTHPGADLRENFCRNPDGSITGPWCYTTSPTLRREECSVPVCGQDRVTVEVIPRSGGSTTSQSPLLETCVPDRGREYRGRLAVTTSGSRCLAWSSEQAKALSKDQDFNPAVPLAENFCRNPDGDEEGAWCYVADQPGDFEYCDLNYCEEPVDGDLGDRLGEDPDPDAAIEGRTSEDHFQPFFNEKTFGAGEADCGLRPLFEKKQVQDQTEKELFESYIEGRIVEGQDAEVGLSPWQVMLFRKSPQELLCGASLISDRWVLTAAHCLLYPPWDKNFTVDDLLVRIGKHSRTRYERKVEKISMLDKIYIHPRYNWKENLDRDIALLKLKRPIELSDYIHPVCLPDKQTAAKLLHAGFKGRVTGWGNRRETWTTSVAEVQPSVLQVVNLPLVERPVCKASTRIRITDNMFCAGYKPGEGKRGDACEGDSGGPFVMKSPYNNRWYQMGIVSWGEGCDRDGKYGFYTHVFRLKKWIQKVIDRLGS
T1 sequence (P06867 97-809): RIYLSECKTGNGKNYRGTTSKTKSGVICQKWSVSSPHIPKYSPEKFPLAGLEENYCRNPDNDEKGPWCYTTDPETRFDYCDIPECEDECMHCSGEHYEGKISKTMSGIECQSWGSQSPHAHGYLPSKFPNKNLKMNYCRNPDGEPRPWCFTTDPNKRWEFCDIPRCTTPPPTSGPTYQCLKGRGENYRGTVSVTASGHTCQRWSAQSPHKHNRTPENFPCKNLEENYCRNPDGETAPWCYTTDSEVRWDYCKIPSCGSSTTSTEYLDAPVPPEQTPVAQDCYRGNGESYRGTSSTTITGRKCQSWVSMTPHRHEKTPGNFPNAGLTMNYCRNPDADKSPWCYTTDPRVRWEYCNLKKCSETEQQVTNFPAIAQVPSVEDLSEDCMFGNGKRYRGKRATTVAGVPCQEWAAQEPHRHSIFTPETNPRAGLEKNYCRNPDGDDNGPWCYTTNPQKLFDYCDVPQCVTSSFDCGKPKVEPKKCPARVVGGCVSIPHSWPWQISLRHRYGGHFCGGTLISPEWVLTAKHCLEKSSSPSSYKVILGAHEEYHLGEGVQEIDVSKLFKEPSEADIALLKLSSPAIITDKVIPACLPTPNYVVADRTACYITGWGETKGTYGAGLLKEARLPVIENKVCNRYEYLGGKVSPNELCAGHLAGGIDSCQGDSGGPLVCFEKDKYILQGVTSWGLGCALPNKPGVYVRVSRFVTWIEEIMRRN
Plasmin (PL), sequence (P06867 97-809): as above
Factor-Xa (FXa), sequence (P00743 41-180): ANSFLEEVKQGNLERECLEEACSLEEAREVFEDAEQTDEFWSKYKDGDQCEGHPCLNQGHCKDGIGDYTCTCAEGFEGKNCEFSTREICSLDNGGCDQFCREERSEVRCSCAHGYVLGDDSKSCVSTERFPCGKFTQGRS
Factor-Xa (FXa), sequence (P00743 234-492): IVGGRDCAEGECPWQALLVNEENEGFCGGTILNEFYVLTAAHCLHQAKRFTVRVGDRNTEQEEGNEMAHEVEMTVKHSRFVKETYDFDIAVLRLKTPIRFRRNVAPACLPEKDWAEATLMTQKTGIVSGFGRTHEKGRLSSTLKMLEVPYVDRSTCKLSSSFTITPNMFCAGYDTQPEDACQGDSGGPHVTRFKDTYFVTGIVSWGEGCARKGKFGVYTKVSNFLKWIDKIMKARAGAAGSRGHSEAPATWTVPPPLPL

Row | Structure (SMILES) | reaction with coagulation and linear dissolution related enzymes such as thrombin, Factor Xa, UK ([1]; in words) | Km value compared with S-2251 (in words) (plasmin (pig) [2]) | Selectivity PL, absorbance (O.D.) at 405 nm (Plasmin (PL)) [O.D.] | Selectivity KL, absorbance (O.D.) at 405 nm (Kallikrein (KL)) [O.D.] | Selectivity FXa, absorbance (O.D.) at 405 nm (Factor-Xa (FXa)) [O.D.] | Selectivity TH, absorbance (O.D.) at 405 nm (Thrombin (TH)) [O.D.] | Vmax (× 10^-6) [mole/min/Cu] (plasmin (pig) [3]) | V/Km (× 10^-3) (plasmin (pig) [3]) | Vmax (× 10^7) (plasmin (pig) [3]) | Relative ratio (plasmin (pig) [3]) | Selectivity UK, absorbance (O.D.) at 405 nm (Urokinase (UK)) [O.D.] | Km (Human Thrombin) [µM] | selectivity (in words) [1] | Km (Human Plasmin) [µM]
1 | Cc1ccc(S(=O)(=O)NCC(=O)N2CCC[C@H]2C(=O)N[C@@H](CCCCN)C(=O)Nc2ccc([N+](=O)[O-])cc2)cc1 [CHR-PL, Tos-Gly-Pro-Lys-PNA, reference compound] (HELM PEPTIDE1{[Cc1ccc(S(=O)(=O)[*:2])cc1].G.P.K.[O=[N+]([O-])c1ccc(N[*:1])cc1]}$$$$V2.0) | considerably reacts | smaller than that of S-2251 | 0.647 | 0.004 | 0.026 | 0.057 | 6.0 × 10^-6 mole/min/Cu | 21.628 × 10^-3 | 60.067 × 10^7 | 1.889 | 0.069 | – | – | –
2 | Cc1ccc(C(=O)NCCCC[C@@H](N)C(=O)N[C@@H](Cc2ccccc2)C(=O)N[C@@H](CCCCN)C(=O)Nc2ccc([N+](=O)[O-])cc2)cc1 [NPN-10] | – | – | 0.335 | 0.011 | 0.006 | 0.001 | – | – | 26.218 × 10^7 | 14.764 | 0.001 | – | – | –
3 | NCCCC[C@H](NC(=O)[C@H](Cc1ccccc1)NC(=O)[C@H](N)CCCCNS(=O)(=O)c1ccc2ccccc2c1)C(=O)Nc1ccc([N+](=O)[O-])cc1 [NPN-11] | – | – | 0.171 | 0.001 | 0.005 | 0 | – | – | 23.895 × 10^7 | 11.660 | 0.001 | – | – | –
4 | N=C(N)NCCC[C@H](NC(=O)[C@@H]1CCCCN1C(=O)[C@H](N)Cc1ccccc1)C(=O)Nc1ccc([N+](=O)[O-])cc1 [S-2238] | – | – | – | – | – | – | – | – | – | – | – | 7 | – | –
5 | CC(C)C[C@H](NC(=O)[C@H](N)C(C)C)C(=O)N[C@@H](CCCCN)C(=O)Nc1ccc([N+](=O)[O-])cc1 [S-2251, H-D-Val-Leu-Lys-PNA, reference compound] (HELM PEPTIDE1{[dV].L.K.[O=[N+]([O-])c1ccc(N[*:1])cc1]}$$$$V2.0) | – | – | 0.306 | 0.017 | 0.007 | 0.001 | 4.0 × 10^-6 mole/min/Cu | 11.449 × 10^-3 | 39.876 × 10^7 | 1.000 | 0.001 | – | comparatively good selectivity | 300
